According to US9926297B2, “Bicyclic AZA compounds as muscarinic M1 receptor and/or M4 receptor agonists” (Heptares Therapeutics Limited, priority 2014, dated 2018):

How the values were obtained:
[1] = molecular target: human muscarinic M3 receptor (Homo sapiens, UniProt P20309); assay: Alphascreen Surefire phospho-ERK1/2 functional assay, M3; conditions: for Emax: CHO, read-out: % Emax cf. ACh, M3, CHO cells stably expressing human M3, relative to ACh; for EC50: pEC50 M3, CHO cells stably expressing human M3, phospho-ERK1/2, * = variable results
human muscarinic M3 receptor, sequence (P20309 whole entry): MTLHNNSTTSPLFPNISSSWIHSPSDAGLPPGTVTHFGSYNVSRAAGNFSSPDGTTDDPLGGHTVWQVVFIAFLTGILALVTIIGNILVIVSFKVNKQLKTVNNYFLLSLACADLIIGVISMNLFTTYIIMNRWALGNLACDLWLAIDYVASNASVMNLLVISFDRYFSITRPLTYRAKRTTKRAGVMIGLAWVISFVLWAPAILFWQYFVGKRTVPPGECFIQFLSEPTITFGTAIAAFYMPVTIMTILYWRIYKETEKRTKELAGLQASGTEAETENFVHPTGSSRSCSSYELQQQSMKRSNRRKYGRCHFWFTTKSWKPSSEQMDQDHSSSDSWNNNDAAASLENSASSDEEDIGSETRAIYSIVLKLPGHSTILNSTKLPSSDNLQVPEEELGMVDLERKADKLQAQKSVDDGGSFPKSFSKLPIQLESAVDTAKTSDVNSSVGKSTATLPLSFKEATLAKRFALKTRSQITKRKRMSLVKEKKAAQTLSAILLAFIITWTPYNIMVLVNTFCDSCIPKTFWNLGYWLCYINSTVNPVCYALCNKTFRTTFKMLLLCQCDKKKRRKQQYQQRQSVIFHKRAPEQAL

[2] = molecular target: T1, human muscarinic M4 receptor (Homo sapiens, UniProt P08173); assay: Alphascreen Surefire phospho-ERK1/2 functional assay, M4; type: cell-based; conditions: for EC50: CHO cells stably expressing human M4, phospho-ERK1/2, * = variable results, read-out: pEC50 M4 (converted); for Emax: CHO, read-out: % Emax cf. ACh, M4, CHO cells stably expressing human M4, relative to ACh
T1 construct: expressed in transfected cells
T1 sequence (P08173 1-479): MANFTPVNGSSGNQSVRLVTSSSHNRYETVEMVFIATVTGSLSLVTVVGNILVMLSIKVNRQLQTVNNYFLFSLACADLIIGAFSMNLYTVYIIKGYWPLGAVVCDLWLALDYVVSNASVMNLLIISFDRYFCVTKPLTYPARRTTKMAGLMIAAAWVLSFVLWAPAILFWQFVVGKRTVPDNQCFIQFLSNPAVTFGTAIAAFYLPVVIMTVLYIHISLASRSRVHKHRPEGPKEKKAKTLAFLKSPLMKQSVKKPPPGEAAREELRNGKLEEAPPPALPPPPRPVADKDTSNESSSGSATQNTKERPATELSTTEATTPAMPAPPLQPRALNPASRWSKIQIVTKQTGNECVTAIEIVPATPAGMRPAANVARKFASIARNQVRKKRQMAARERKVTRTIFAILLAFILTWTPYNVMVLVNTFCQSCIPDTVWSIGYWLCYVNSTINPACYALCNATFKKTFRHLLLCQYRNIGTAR

[3] = molecular target: T2, human muscarinic M1 receptor (Homo sapiens, UniProt P11229); assay: Alphascreen Surefire phospho-ERK1/2 functional assay, M1; type: cell-based; conditions: for EC50: CHO cells stably expressing human M1, phospho-ERK1/2, * = variable results, read-out: pEC50 M1 (converted); for Emax: CHO, read-out: % Emax cf. ACh, M1, CHO cells stably expressing human M1, relative to ACh
T2 sequence (P11229 1-460): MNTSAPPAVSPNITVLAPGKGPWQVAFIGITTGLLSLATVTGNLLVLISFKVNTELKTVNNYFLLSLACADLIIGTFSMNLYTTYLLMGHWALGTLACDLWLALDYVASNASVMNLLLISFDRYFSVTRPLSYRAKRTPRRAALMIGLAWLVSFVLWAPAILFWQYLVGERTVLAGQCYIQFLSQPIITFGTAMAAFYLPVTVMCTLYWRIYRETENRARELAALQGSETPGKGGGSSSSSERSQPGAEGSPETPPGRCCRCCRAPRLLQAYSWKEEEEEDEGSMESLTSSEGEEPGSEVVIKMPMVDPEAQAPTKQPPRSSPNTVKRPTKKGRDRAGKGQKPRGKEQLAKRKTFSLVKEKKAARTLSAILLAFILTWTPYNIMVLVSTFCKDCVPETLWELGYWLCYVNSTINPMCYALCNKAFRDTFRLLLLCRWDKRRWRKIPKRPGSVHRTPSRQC

[4] = molecular target: T3, human muscarinic M2 receptor (Homo sapiens, UniProt P08172); assay: Alphascreen Surefire phospho-ERK1/2 functional assay, M2; conditions: for Emax: CHO, read-out: % Emax cf. ACh, M2, CHO cells stably expressing human M2, relative to ACh
T3 sequence (P08172 1-466): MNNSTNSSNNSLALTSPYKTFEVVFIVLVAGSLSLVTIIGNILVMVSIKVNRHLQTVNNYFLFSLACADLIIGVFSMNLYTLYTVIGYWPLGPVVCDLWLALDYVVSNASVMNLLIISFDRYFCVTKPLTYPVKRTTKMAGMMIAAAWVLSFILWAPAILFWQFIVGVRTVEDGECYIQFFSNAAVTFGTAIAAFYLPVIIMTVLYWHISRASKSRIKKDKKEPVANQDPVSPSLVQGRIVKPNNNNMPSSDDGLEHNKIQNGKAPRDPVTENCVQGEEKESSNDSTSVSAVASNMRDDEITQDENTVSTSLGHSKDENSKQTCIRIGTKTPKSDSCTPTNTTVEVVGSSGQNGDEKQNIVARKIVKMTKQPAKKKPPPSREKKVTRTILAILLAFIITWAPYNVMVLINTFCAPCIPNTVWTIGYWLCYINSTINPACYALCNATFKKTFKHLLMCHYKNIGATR

Row | SMILES | Emax [1] [%] | EC50 [1] [µM] | EC50 [2] [nM] | Emax [2] [%] | EC50 [3] [nM] | Emax [3] [%] | EC50 [4] [µM] | Emax [4] [%]
1 | CCOC(=O)N1CCC2(CC(N3CCC(c4c(C)cnn4C)CC3)C2)C1 (single isomer, unassigned) [1-58 Isomer 2, ethyl 2-[4-(1,4-dimethyl-1H-pyrazol-5-yl)piperidin-1-yl]-6-azaspiro[3.4]octane-6-carboxylate] | 2 | > 20 | 31.6 | 93 | 794 | 55 | > 20 | 13
2 | CCOC(=O)N1CCC2(CC(N3CCC([C@@H]4CCCN4C(=O)NC(C)C)CC3)C2)C1 (single isomer, unassigned) [2-25 Isomer 2] | 2 | > 20 | 10 | 86 | 631 | 74 | > 20 | 6
3 | CCOC(=O)N1CCC2(CC(N3CCC([C@@H]4CCCN4C(=O)COC)CC3)C2)C1 (single isomer, unassigned) [2-46 Isomer 2] | 8 | > 20 | 15.8 | 85 | 1580 | 32 | > 20 | 5
4 | CCOC(=O)N1CCC2(CC(N3CCC(c4ccnn4C)CC3)C2)C1 (single isomer, unassigned) [1-21 Isomer 2, ethyl 2-[4-(1-methyl-1H-pyrazol-5-yl)piperidin-1-yl]-6-azaspiro[3.4]octane-6-carboxylate] | – | > 20 | 39.8 | – | > 20000 | 11 | > 20 | –
5 | COC(=O)N1CCC2(CC(N3CCC(c4c(C)cnn4C)CC3)C2)C1 (single isomer, unassigned) [1-57 Isomer 2, methyl 2-[4-(1,4-dimethyl-1H-pyrazol-5-yl)piperidin-1-yl]-6-azaspiro[3.4]octane-6-carboxylate] | 7 | > 20 | 126 | 69 | 2000 | 63 | > 20 | 7
6 | CCOC(=O)N1CCC2(CC(N3CCC(C4CCCN4C(=O)CNC)CC3)C2)C1 (single isomer, unassigned) [2-23 Isomer 2, ethyl 2-{4-[1-(N-methylglycyl)pyrrolidin-2-yl]piperidin-1-yl}-6-azaspiro[3.4]octane-6-carboxylate] | 9 | > 20 | 50.1 | 104 | 1260 | 65 | > 20 | 3
7 | CCOC(=O)N1CCC2(CC(N3CCC([C@@H]4CCCN4C(=O)N4CCOCC4)CC3)C2)C1 (single isomer, unassigned) [2-28 Isomer 2] | 5 | > 20 | 25.1 | 63 | > 20000 | 7 | > 20 | 3
8 | COC(=O)N1CCC2(CC(N3CCC(c4nc(Cl)c(Cl)n4C)CC3)C2)C1 (single isomer, unassigned) [1-16 Isomer 2, methyl 2-[4-(4,5-dichloro-1-methyl-1H-imidazol-2-yl)piperidin-1-yl]-6-azaspiro[3.4]octane-6-carboxylate] | 1 | > 20 | 158 | 82 | 1580 | 80 | 7.94 | 34

Next, values leading:

Row | Emax [1] [%] | EC50 [1] [µM] | EC50 [2] [nM] | Emax [2] [%] | EC50 [3] [nM] | Emax [3] [%] | EC50 [4] [µM] | Emax [4] [%] | SMILES
9 | 4 | > 20 | 2.51 | 109 | 316 | 80 | > 20 | 6 | CCOC(=O)N1CCC2(CC(N3CCC([C@@H]4CCCN4C(=S)NC)CC3)C2)C1 (single isomer, unassigned) [2-75 Isomer 2]
10 | 5 | > 20 | 20 | 102 | 126 | 97 | > 20 | 10 | CCOC(=O)N1CCC2(CC(N3CCC(N4CC(F)(F)C[C@@H]4C)CC3)C2)C1 (single isomer, unassigned) [2-106 Isomer 2]
11 | 4 | > 20 | 12.6 | 88 | 158 | 103 | > 20 | 9 | CCOC(=O)N1CCC2(CC(N3CCC(C4C(=O)NCCC4C)CC3)C2)C1 (single isomer, unassigned) [4-3 Isomer 2, ethyl 2-(4-methyl-2-oxo-3,4′-bipiperidin-1′-yl)-6-azaspiro[3.4]octane-6-carboxylate]
12 | 1 | > 20 | 12.6 | 82 | 12.6 | 97 | > 20 | 2 | CCOC(=O)N1CCC2(CC(N3CCC(c4cccc(OC)n4)CC3)C2)C1 (single isomer, unassigned) [3-13 Isomer 2, ethyl 2-[4-(6-methoxypyridin-2-yl)piperidin-1-yl]-6-azaspiro[3.4]octane-6-carboxylate]
13 | 5 | > 20 | 3.98 | 110 | 251 | 34 | > 20 | 2 | CCOC(=O)N1CCC2(CC(N3CCC(c4cc(C)cnc4OC)CC3)C2)C1 (single isomer, unassigned) [3-12 Isomer 2, ethyl 2-[4-(2-methoxy-5-methylpyridin-3-yl)piperidin-1-yl]-6-azaspiro[3.4]octane-6-carboxylate]
14 | 8 | > 20 | 3.16 | 41 | > 20000 | 12 | > 20 | 6 | CCOC(=O)N1CCC2(CC(N3CCC([C@@H]4CCCN4C(=O)OCc4ccccn4)CC3)C2)C1 (single isomer, unassigned) [2-64 Isomer 2]
15 | 0 | > 20 | 25.1 | 54 | > 20000 | 19 | > 20 | 2 | CCOC(=O)N1CCC2(CC(N3CCC(c4ccnc(N)n4)CC3)C2)C1 (single isomer, unassigned) [3-8 Isomer 2, ethyl 2-[4-(2-aminopyrimidin-4-yl)piperidin-1-yl]-6-azaspiro[3.4]octane-6-carboxylate]
16 | 21 | > 20 | 5.01 | 73 | 31.6 | 97 | > 20 | 19 | CCOC(=O)N1CCC2(CC(N3CCC(C4CC(C)CNC4=O)CC3)C2)C1 (single isomer, unassigned) [4-4 Isomer 2, ethyl 2-(5-methyl-2-oxo-3,4′-bipiperidin-1′-yl)-6-azaspiro[3.4]octane-6-carboxylate]
17 | 48 | > 20 | 6.31 | – | 63.1 | – | > 20 | – | CCOC(=O)N1CCC2(CC(N3CCC(N4CC(F)(F)C[C@@H]4CO)CC3)C2)C1 (single isomer, unassigned) [2-107 Isomer 2]
